# According to patent US20220395472A1 (Dermavant Sciences GmbH, priority 2021, published 2022):
# Values joined by “and” are separate entries in the source; they are usually repeats but may differ in a detail not shown here. Equal values may be shown once.
# Experiments:
# [1] = test system: adults with plaque psoriasis; test: Long-term extension study (PSOARING 3): PASI score, PASI75, PASI90; assay type: in vivo, human
# From the text: The PASI scoring system is a widely used, standard, clinical tool for assessing the severity of psoriasis that takes into account the overall severity of erythema (redness), induration (plaque thickness), scale, and the extent of % BSA affected with psoriasis. The 3 clinical signs are each graded on a 5 point scale (0 to 4) and the % BSA affected is scored on a 7 point scale (0 to 6) for each of the 4 specified body regions (head, upper extremities, trunk, and lower extremities). Individual scores are multiplied by a weighted factor for each body region; the sum of these scores gives the overall PASI score. Higher scores indicate more severe disease. PASI is a static assessment made without reference to previous scores. Details on PASI calculation can be found in Appendix 2 of the protocol.
# [2] = In vitro studies in human skin microsomes: metabolic turnover; assay type: in vitro ADME
# From the text: The reason for the decrease in plasma concentrations over time is unknown. Without wishing to be bound by theory, as the skin heals, there may be less penetration of the drug through the stratum corneum and into the systemic circulation since the barrier is restored.
# [3] = test system: mild to severe plaque psoriasis; test: Treat-to-target pooled analysis of the PSOARING trials; assay type: in vivo, human
# From the text: In addition to a % BSA of ≤1.0% and PASI75, pooled analyses explored more aggressive targets, including the proportion of patients with % BSA of ≤0.5%, or an absolute PASI score of ≤1, ≤2 or ≤3. […] Safety analyses are based on all patients who received tapinarof in the PSOARING trials.
# [4] = Week 16, LOCF, Tapinarof (Pivotal) group
# [5] = Week 16, LOCF, Vehicle (Pivotal) group
# [6] = Week 16, OC, Tapinarof (Pivotal) group
# [7] = Week 16, OC, Vehicle (Pivotal) group
# [8] = Week 16, Observed Cases, Overall
# [9] = Week 16, Observed Cases, Tapinarof (Pivotal) group
# [10] = Week 16, Observed Cases, Vehicle (Pivotal) group
# [11] = Week 40, LOCF, Tapinarof (Pivotal) group
# [12] = Week 40, LOCF, Vehicle (Pivotal) group
# [13] = Week 40, OC, Tapinarof (Pivotal) group
# [14] = Week 40, OC, Vehicle (Pivotal) group
# [15] = Week 40, Observed Cases, Tapinarof (Pivotal) group
# [16] = Week 40, Observed Cases, Vehicle (Pivotal) group
smiles,measurement,setting,value
"CC(C)c1c(O)cc(/C=C/c2ccccc2)cc1O [Tapinarof, 3,5-Dihydroxy-4-isopropyl-trans-stilbene]",PASI75 Responder,"[1]; Week 16, LOCF, Overall, listed as tapinarof",21.3%
same,PASI75 Non-Responder,[1]; [4],413/491 (84.1) %
same,PASI75 Responder,[1]; [4],78/491 (15.9) %
same,Subjects with reduction of ≥90% from Baseline in PASI (PASI90),[1]; [4],13.0%
same,mean (SD) PASI score,[1]; [4],2.74 (3.324)
same,PASI75 Responder,"[1]; Week 16, LOCF, Tapinarof (Pivotal) group, listed as tapinarof",15.9%
same,PASI75 Non-Responder,[1]; [5],170/250 (68.0) %
same,PASI75 Responder,[1]; [5],80/250 (32.0) %
same,Subjects with reduction of ≥90% from Baseline in PASI (PASI90),[1]; [5],15.2%
same,mean (SD) PASI score,[1]; [5],3.47 (3.794)
same,PASI75 Responder,"[1]; Week 16, LOCF, Vehicle (Pivotal) group, listed as tapinarof",32.0%
same,Subjects with reduction of ≥90% from Baseline in PASI (PASI90),[1]; [6],13.6%
same,mean (SD) PASI score,[1]; [6],2.38 (2.652)
same,Subjects with reduction of ≥90% from Baseline in PASI (PASI90),[1]; [7],15.9%
same,mean (SD) PASI score,[1]; [7],2.95 (3.020)
same,PASI75 Non-Responder,[1]; [8],478/619 (77.2) %
same,PASI75 Responder,[1]; [8],141/619 (22.8) %
same,PASI75 Responder,"[1]; Week 16, Observed Cases, Overall, listed as tapinarof",22.8%
same,PASI75 Non-Responder,[1]; [9],342/412 (83.0) %
same,PASI75 Responder,[1]; [9],70/412 (17.0) %
same,PASI75 Responder,"[1]; Week 16, Observed Cases, Tapinarof (Pivotal) group, listed as tapinarof",17.0%
same,PASI75 Non-Responder,[1]; [10],136/207 (65.7) %
same,PASI75 Responder,[1]; [10],71/207 (34.3) %
same,PASI75 Responder,"[1]; Week 16, Observed Cases, Vehicle (Pivotal) group, listed as tapinarof",34.3%
same,PASI75 Non-Responder,"[1]; Week 16 LOCF, Overall",583/741 (78.7) %
same,PASI75 Responder,"[1]; Week 16 LOCF, Overall",158/741 (21.3) %
same,Subjects with reduction of ≥90% from Baseline in PASI (PASI90),"[1]; Week 16 LOCF, Overall",13.8%
same,mean (SD) PASI score,"[1]; Week 16 LOCF, Overall",2.99 (3.504)
same,Subjects with reduction of ≥90% from Baseline in PASI (PASI90),"[1]; Week 16 OC, Overall",14.4%
same,mean (SD) PASI score,"[1]; Week 16 OC, Overall",2.57 (2.791)
same,PASI75 Responder,"[1]; Week 40, LOCF, Overall, listed as tapinarof",25.3%
same,PASI75 Non-Responder,[1]; [11],409/492 (83.1) %
same,Subjects with reduction of ≥90% from Baseline in PASI (PASI90),[1]; [11],11.2%
same,mean (SD) PASI score,[1]; [11],2.80 (3.443)
same,PASI75 Responder,"[1]; Week 40, LOCF, Tapinarof (Pivotal) group, listed as tapinarof",16.9%
same,PASI75 Non-Responder,[1]; [12],146/251 (58.2) %
same,PASI75 Responder,[1]; [12],105/251 (41.8) %
same,Subjects with reduction of ≥90% from Baseline in PASI (PASI90),[1]; [12],20.7%
same,mean (SD) PASI score,[1]; [12],3.28 (3.937)
same,PASI75 Responder,"[1]; Week 40, LOCF, Vehicle (Pivotal) group, listed as tapinarof",41.8%
same,Subjects with reduction of ≥90% from Baseline in PASI (PASI90),[1]; [13],13.1%
same,mean (SD) PASI score,[1]; [13],2.38 (2.672)
same,Subjects with reduction of ≥90% from Baseline in PASI (PASI90),[1]; [14],27.4%
same,mean (SD) PASI score,[1]; [14],2.31 (3.008)
same,PASI75 Responder,"[1]; Week 40, Observed Cases, Overall",30.9%
same,PASI75 Non-Responder,[1]; [15],186/236 (78.8) %
same,PASI75 Responder,[1]; [15],50/236 (21.2) %
same,PASI75 Responder,"[1]; Week 40, Observed Cases, Tapinarof (Pivotal) group, listed as tapinarof",21.2%
same,PASI75 Non-Responder,[1]; [16],55/113 (48.7) %
same,PASI75 Responder,[1]; [16],58/113 (51.3) %
same,PASI75 Responder,"[1]; Week 40, Observed Cases, Vehicle (Pivotal) group, listed as tapinarof",51.3%
same,PASI75 Non-Responder,"[1]; Week 40 LOCF, Overall",555/743 (74.7) %
same,PASI75 Responder,"[1]; Week 40 LOCF, Overall",188/743 (25.3) %
same,Subjects with reduction of ≥90% from Baseline in PASI (PASI90),"[1]; Week 40 LOCF, Overall",14.4%
same,mean (SD) PASI score,"[1]; Week 40 LOCF, Overall",2.97 (3.622)
same,Subjects with reduction of ≥90% from Baseline in PASI (PASI90),"[1]; Week 40 OC, Overall",17.8%
same,mean (SD) PASI score,"[1]; Week 40 OC, Overall",2.36 (2.781)
same,metabolic turnover,[2],no metabolic turnover
same,KM estimated median time to target % BSA≤0.5%,"[3]; 915 patients, baseline PGA≥2",199 days
same,mean time to target PASI≤3,"[3]; 915 patients, baseline PGA≥2",58 days
same,median time to target % BSA≤1.0%,"[3]; 915 patients, baseline PGA≥2",120 days
same,median time to target PASI≤1,"[3]; 915 patients, baseline PGA≥2",185 days
same,median time to target PASI≤2,"[3]; 915 patients, baseline PGA≥2",87 days
same,patients who achieved % BSA≤0.5%,"[3]; 915 patients, baseline PGA≥2",49.7%
same,patients who achieved % BSA≤1.0%,"[3]; 915 patients, baseline PGA≥2",61.3% and 61%
same,patients who achieved PASI≤1,"[3]; 915 patients, baseline PGA≥2",50.3%
same,patients who achieved PASI≤2,"[3]; 915 patients, baseline PGA≥2",66.9% and 67%
same,patients who achieved PASI≤3,"[3]; 915 patients, baseline PGA≥2",75.0%
same,patients who achieved ≤1% BSA affected,[3]; within ˜3 months,40%
